# Source: patent US11820973B2, “Methods and system for interfering with viability of bacteria and related compounds and compositions” (CALIFORNIA INSTITUTE OF TECHNOLOGY, priority 2011, dated 2023)
# Entries after “also recorded” stand apart in the source; their conditions may differ.
# Tests used:
# [1] = system: P. aeruginosa PA14 biofilm; assay: MBEC assay, anaerobic biofilm prevention; type: cell-based, Pseudomonas aeruginosa
# Experimental: (§1) In some examples, biofilm prevention and dissolution were measured via a high-throughput biofilm assay (MBEC Physiology and Genetics Assay) consisting of a 96-well plate into which a 96-peg plastic lid fits. This lid also fits over a standard 96-well plate, which was subsequently used to test the efficacy of iron chelators. Inoculum was prepared by diluting (30-fold) a 1.0 McFarland suspension of P. aeruginosa PA14 in TSB. 150 μl, was dispensed into each of the 60 inner wells, while 200 μl, of sterile trypticase soy broth (TSB) was placed in each perimeter well. For dissolution experiments, plates were incubated at 37° C. for 24 h, and were transferred to an anaerobic chamber for 24 h at 37° C. in anaerobic TSB containing 50 mM KNO3. Biofilms were then exposed to conalbumin and/or Ferrozine® for 24 h. Each treatment was complemented with the addition of 80 μM ferrous ammonium sulfate. After treatment, lids were rinsed once in 50 mM HEPES, air dried for 10 min and quantified by crystal violet staining. For biofilm prevention, anaerobic inoculum was amended with conalbumin and/or Ferrozine®. Media was replaced every 24 h by transferring the MBEC lid to a sterile plate containing growth media+/− treatments, and biofilms were allowed to develop for 168 h. Biomass was quantified as described above. Biological triplicates and six technical replicates (n=18) were used for each treatment.
# [2] = system: P. aeruginosa PA14 mature biofilms; assay: MBEC assay, dissolution of mature biofilms; type: cell-based, Pseudomonas aeruginosa; settings: 100 or 200 μM Ferrozine®; 24 h exposure
# Experimental: as §1
# P. aeruginosa = assay: Planktonic growth rates with iron chelators; type: cell-based, Pseudomonas aeruginosa
# [3] = system: P. aeruginosa PA14 Δphz mutant; assay: Intracellular NADH/NAD^+ ratio in stationary phase cultures; type: cell-based, Pseudomonas aeruginosa; settings: for Effect on intracellular NADH/NAD^+ ratios: stationary phase, 30 mM nitrate, pyocyanin in the micromolar range
# Experimental: (A) Growth and pyocyanin production for wild type P. aeruginosa PA14 grown aerobically in 10 ml LB in 18×150 mM tubes. (B) NADH/NAD^+ ratios for cultures grown under the same conditions as those described in part (A). At 7 hours, pyocyanin production in the wild type cultures was visible by eye. 45 μM (half the expected final concentration) was added to the Δphz cultures to be tested for complementation, and 15 mM KNO3 was added to cultures to be tested for the effect of an additional electron acceptor. At 9 hours, pyocyanin in the wild type cultures had increased to near-maximum concentrations, so a second dose of pyocyanin or KNO3 was added to the appropriate cultures, for final concentrations of 90 μM and 30 mM, respectively. Water was added to negative controls. Eleven hours after inoculation, and 2 hours after the addition of the final dose of pyocyanin, NAD(H) was extracted and assayed for each culture. (C), NADH/NAD^+ ratios for cultures treated as in part (B), but with varying concentrations of pyocyanin added. (D) NADH and NAD^+ concentrations for cultures described in (B), normalized to OD (500 nm). Error bars represent the standard deviations of triplicate samples. OD, optical density. wt, wild type.
# Two×1 ml of culture were sampled into two separate microcentrifuge tubes and centrifuged at 16,000×g for 1 min. Supernatant was removed and pellets were resuspended in 300 μl of 0.2 M NaOH (for NADH extraction) or 0.2 M HCl (for NAD^+ extraction). […] Supernatants were transferred to fresh tubes and stored at −80° C. until quantification.
# A master reagent mix was prepared with 1× Bicine buffer (2.0 M, pH 8.0), 8× water, 1×80 mM EDTA, 2×100% EtOH, 2×4.2 mM thiazolyl blue (MTT), and 4×16.6 mM phenazine ethosulfate. […] The microtiter plate was incubated at 30° C., mixed by brief shaking, and read every 30-60 seconds for absorbance at 570 nm, which is the spectral peak of MTT that increases upon reduction. Slopes arising from plots of absorbance at 570 nm over time were generated for NADH and NAD^+ standards as well as all samples. […]
# [4] = system: P. aeruginosa PA14 wild-type colonies; assay: Colony biofilm morphology, wild type; type: cell-based, Pseudomonas aeruginosa; settings: 0.2 M of either compound added to the agar
# Experimental: FIG. 8. […] Each day colonies from three independent experiments were scanned and their surface coverage was determined. Representative images of colonies at day 2, 4 and 6 are shown (A; scale bar is 1 cm). The data in (B) show the average surface coverage and standard deviation for the three independent experiments. (C) Phenazine titrations. […] Surface coverage of colonies from three independent experiments was determined after incubation at 20° C. for 7 days. Bars indicate the standard deviation.
# Colony biofilms were grown on agar containing 1% tryptone as previously described. Three colonies from independent spottings were documented for 8 days using an Epson scanner.
# [5] = system: P. aeruginosa PA14 wild type; assay: Swarming motility, wild type; type: cell-based, Pseudomonas aeruginosa; settings: 100 μM in the swarming agar
# Experimental: (§2) FIG. 6. Δphz1/2 has increased swarming motility. Quantification of swarming motility. Images of three swarming plates for each strain or condition were captured, exported to Adobe Photoshop and the agar surface covered by the swarms was quantified using the Analysis Tools.
# (§3) Swimming, swarming and twitching motilities were determined as previously described.
# [6] = system: P. aeruginosa PA14 Δphz1/2; assay: Swarming motility, Δphz1/2; type: cell-based, Pseudomonas aeruginosa; settings: 100 μM in the swarming agar
# Experimental: as §2, §3
# [7] = system: P. aeruginosa PA14 wild type; assay: Flow cell biofilm development, wild type, 1% TSB with or without conalbumin; settings: wild type; for Rescue of the conalbumin-induced biofilm defect: 10 μM phenazine added to conalbumin-treated 1% TSB, 6 days
# [8] = system: P. aeruginosa PA14 Δphz1/2 colonies; assay: Colony biofilm morphology and surface coverage, Δphz1/2; type: cell-based, Pseudomonas aeruginosa; settings: for Effect on rugosity and surface coverage of colonies: 0.2 M of either compound added to the agar
# [9] = system: P. aeruginosa PA14 phenazine null strain (Δphz); assay: Flow cell biofilm development, phenazine null strain, 1% TSB; settings: 10 μM PCA in the medium flow of the Δphz mutant; by day 6
# [10] = system: P. aeruginosa PA14 Δphz mutant; assay: Pyruvate excretion, HPLC of culture filtrates; type: cell-based, Pseudomonas aeruginosa; settings: 50 μM pyocyanin added to the Δphz mutant upon entry into stationary phase
# Experimental: FIG. 13. Wild type P. aeruginosa PA14 excretes pyruvate in stationary phase, and addition of pyocyanin to Δphz mutant cultures restores the pyruvate excretion phenotype. Cultures were inoculated into MOPS synthetic medium amended with 50 mM glucose (initial OD (500 nm)=0.03). To complement pyruvate excretion, 50 μM pyocyanin was added to the Δphz culture at the time when pyocyanin reached its maximum concentration in the wild type cultures (approximately 12 hours after inoculation). 20 μl of culture filtrates at the 24-hour time point were loaded onto an anion exchange column and subjected to an isocratic gradient in 5 mM H2SO4. Pyruvate peaks (1305, 1310) are indicated by arrows. The elution time of pyruvate drifts slightly but averages around 10.5 minutes. Results shown are representative of three separate experiments. Other peak identities are described in the text.
# Two hundred μl were sampled from MOPS-glucose cultures (10 ml in an 18×150 mm test tube) at regular intervals and filtered (0.2 μm pore). In cases where repeated sampling from the same culture would alter the total culture volume by more than 10%, multiple identical cultures were inoculated from the same pre-culture and sampled sequentially. […] Compounds were detected by UV absorbance at 210 nm. Absolute concentrations of pyruvate were calculated using a standard curve for pyruvate diluted in MOPS buffer. […]
# [11] = system: P. aeruginosa PA14 siderophore null strain (ΔpvdAΔpchE); assay: Flow cell biofilm development, siderophore null strain, 1% TSB; settings: 10 μM PYO
# [12] = system: P. aeruginosa PA14 Δphz1/2; assay: Flow cell biofilms in 10% LB, COMSTAT analysis; type: cell-based, Pseudomonas aeruginosa
# Experimental: Flow cell biofilms were grown under constant flow at 22° C. in 1.5×4×34 mm flow cells. Continuous flow of 10% LB was supplied with a peristaltic pump at a constant rate of […]. An early stationary-phase culture was diluted to an optical density at 500 nm of around 0.1 and 300 μl were inoculated into the flow cell. Strains expressing eyfp constitutively were used to visualize the biofilms. Upon inoculation, cells were allowed to attach in the absence of flow for 1.5 h before flow was resumed. Developing biofilms were imaged in 3 dimensions using a Leica confocal microscope. eYFP was excited with a 488 nm laser beam kept at constant intensity throughout the experiment, and emission from 510 to 618 nm was collected. Routinely, the Applicant observed that the distribution of bacterial cells throughout the colonized surface varied depending on the region of the flow cell, probably due to factors such as flow or accumulation of planktonic cells. To assure reproducibility, all images were acquired from an area set in the middle of the flow cell. Three images of duplicate flow cell lines were recorded and at least two independent experiments were performed.
# To measure the impact of phenazines on biofilm formation directly, a flow cell system was first used to grow wild-type and Δphz1/2 biofilms. In this system, the wild type formed heterogeneous biofilms that after 4 days developed large and abundant microcolonies (FIG. 7A). Biofilms of Δphz1/2 were flatter and consisted of fewer and smaller aggregates scattered throughout the field of view (FIG. 7B). The morphology of 4-day-old biofilms was analyzed using COMSTAT. A fixed threshold value and connected volume filtration were used for all image stacks. Table 6 summarizes the values calculated for mean biofilm thickness, substratum coverage, number of microcolonies at the substratum, surface-to-volume ratio and maximum biofilm thickness for three independent experiments. […] PCA was not tested under these conditions. The mean thickness, the number of microcolonies and the total biomass volume all increased, reaching numbers similar or even higher than those observed for the wild type (Table 6).
# [13] = system: Pseudomonas aeruginosa genes/operons; assay: DNA microarrays and quantitative RT-PCR; type: cell-based; settings: P. aeruginosa PA14
# Description: Strikingly, mexGHI-opmD and PA2274 were previously shown to be regulated by the PA14 quorum sensing network that controls the production of virulence factors (including phenazines). Through mutational analysis, it is shown that pyocyanin is the physiological signal for the upregulation of these quorum sensing controlled genes during stationary phase and that the response is mediated by the transcription factor SoxR. Our results implicate phenazines as signaling molecules in both P. aeruginosa PA14 and PAO1. Examples are shown in the paper: Dietrich et al. 2006, The phenazine pyocyanin is a terminal signaling factor in the quorum sensing network of Pseudomonas aeruginosa, Molecular Microbiology Vol. 61, No. 5, page 1308-1321, incorporated herein by reference in its entirety.
# [14] = 4 day-old biofilms, Δphz1/2, 25 μM pyocyanin
smiles,measurement,setting,value
"O.O=S(=O)([O-])c1ccc(-c2nc(-c3ccccn3)nnc2-c2ccc(S(=O)(=O)O)cc2)cc1.[Na+] [Ferrozine®, 3-(2-Pyridyl)-5,6-diphenyl-1,2,4-triazine-p,p′-disulfonic acid monosodium salt hydrate]",Reduction of biofilm accumulation,"[1]; 100 μM Ferrozine®, ˜10 μM Fe(II) and 10 μM Fe(III) present",24%
same,Reduction of biofilm accumulation,[1]; 200 μM Ferrozine®,reduced it slightly further
same,Dissolution of mature biofilm,[2],~20%
same,Effect on planktonic growth rates,P. aeruginosa,Neither compound affected planktonic growth rates
"O=[N+]([O-])[O-].[K+] [Nitrate, KNO3]",Effect on intracellular NADH/NAD^+ ratios,[3],effected decreases in intracellular NADH/NAD^+ ratios
"O=C(O)c1cccc2nc3ccccc3nc12 [PCA, Phenazine-1-carboxylic acid]",Effect on the structure of colonies,[4],did not noticeably affect the structure of wild-type colonies
same,Effect on swarming motility,[5],had no effect on the wild type
same,Effect on swarming motility,[6],significantly decreased the motility of the Δphz1/2 mutant
same,Rescue of the conalbumin-induced biofilm defect,[7],rescued the defect
same,Increase of biofilm biomass compared to biofilms treated with conalbumin alone,"[7]; PCA added to conalbumin-treated medium, day 6",13 factor
same,Wild type biofilm development with PCA added to the control medium,[7]; no conalbumin,developed similarly with respect to structure and biomass regardless of whether PCA was added
same,Effect on surface coverage of colonies,"[8]; 0.1M PCA, titration",sufficient to decrease surface coverage of Δphz1/2 colonies to wild-type levels
same,Effect on rugosity and surface coverage of colonies,[8],significantly decreased rugosity and surface coverage of Δphz1/2 colonies
same,Effect on surface coverage of colonies,[8]; higher concentrations of PCA (up to 0.4M),had no additional effects
same,Increase of biofilm biomass,[9],four times
"Cn1c2cccc(=O)c-2nc2ccccc21 [PYO, Pyocyanin]",Effect on the structure of colonies,[4],did not noticeably affect the structure of wild-type colonies
same,Effect on swarming motility,[5],had no inhibitory effect on swarming of either the wild type or Δphz1/2
same,Effect on swarming motility,[6],had no inhibitory effect on swarming of either the wild type or Δphz1/2
same,Pyruvate excretion phenotype,[10],complemented the pyruvate excretion phenotype
same,Rescue of the conalbumin-induced biofilm defect,[7],did not rescue the conalbumin-induced biofilm defect
same,Effect on NADH/NAD^+ ratio,[3]; 90 μM oxidized pyocyanin added to Δphz mutant cultures,reduced the NADH/NAD^+ ratio to the wild type level
same,Effect on intracellular NADH/NAD^+ ratios,[3],effected decreases in intracellular NADH/NAD^+ ratios
same,Increased surface coverage compared to wild-type colonies,[8]; 0.1 M pyocyanin,50%
same,Effect on rugosity and surface coverage of colonies,[8],significantly decreased rugosity and surface coverage of Δphz1/2 colonies
same,Agar surface covered more than wild-type colonies,[8]; pyocyanin 0.2M or higher,35%
same,Rescue without Fe(OH)3(s) relative to rescue with Fe(OH)3(s) addition,[11],2 times
same,Effect on Δphz1/2 flow cell biofilms,[12]; 25 μM pyocyanin,larger microcolonies and thicker biofilms resulted
same,% Coverage at substratum,[12]; [14],15.2 ± 2.46%
same,Average colony volume,[12]; [14],8170 μm^3
same,Average size of colonies at substratum,[12]; [14],102.6 ± 31 μm^2
same,Average thickness,[12]; [14],5.6 ± 1.6
same,Maximum thickness,[12]; [14],57.5 ± 1.9
same,Roughness coefficient,[12]; [14],1.3
same,Surface to volume ratio,[12]; [14],6.6 ± 0.6 μm^2/μm^3
same,Total biomass,"[12]; 4 day-old biofilms, Δphz1/2, 25 μM pyocyanin in the medium from the beginning",4.3 ± 1 μm^3/μm^2
same,Number of microcolonies,"[12]; 4 day-old biofilms, Δphz1/2, 25 μM pyocyanin, minimum microcolony size at the substratum 10 μm^2",8 ± 1.5
same,Effect on gene expression,[13],elicits the upregulation of genes/operons that function in transport; also recorded: downregulates genes involved in ferric iron acquisition
